According to patent publication US20180221306A1, “PHARMACEUTICAL COMPOSITIONS OF 5-HYDROXY-2-METHYLNAPHTHALENE-1,4-DIONE” (PellFiCure Pharmaceuticals, Inc., priority 2016, published 2018):

System: PTEN-P2/H2B-GFP mouse prostate cancer cells
Assay: IVM pseudo-orthotopic prostate chamber model, tumor size
Settings: for Combination efficacy: the drug in combination with Compound I administered orally
Description: Male Nude mice (25-35 g body weight) are anesthetized (7.3 mg ketamine hydrochloride and 2.3 mg xylazine/100 g body weight, i.p.) and placed on a heating pad. Two symmetrical titanium frames are implanted into a dorsal skinfold, so as to sandwich the extended double layer of skin. A 15 mm full thickness circular layer is excised. The underlying muscle (M. cutaneous max.) and subcutaneous tissues are covered with a glass coverslip incorporated in one of the frames. After a recovery period of 2-3 days, prostate tissue and cancer cell spheroids are carefully placed in the chamber. Small circular Band Aids are applied on the backside of the chamber after surgery to prevent scratching. Before surgery, Buprenorphine (0.1 mg/kg) is given IP. After surgery Meloxicam is given in the drinking water for 4 days Meloxicam (5.0 mg/ml), is added at 35 μl per 100 ml of water to be medicated.
Mice are anesthetized with 7.3 mg ketamine hydrochloride and 2.3 mg xylazine/100 g body weight, i.p. A lateral incision across the scrotum is made and the testes are individually ligated and excised. The wound is cauterized. The incision is then sutured and sealed with Nexaband® acrylic.
Preparation of tumor spheroids: Liquid overlay plates were generated using 1% molecular biology grade agarose melted in cell culture medium and plated in round bottom 96 well plates at 50 ul/well. Tumor cells grown as pre-confluent monolayers were trypsinized and diluted to a final volume of 1,000,000 cells/ml. Viability was determined by Trypan blue. Cells were placed onto the cooled agarose (70 μl/well) and allowed to compact into spheroids for 24 hours. The spheroids were picked with a pipette and transferred into serum-free media for implantation in the chambers.
IntraVital Microscopy (IVM) can be used to visualize tumors in animals and analyze various aspects of cancer physiology such as tumor vascularization, cell migration and metastasis. An advantage of IVM includes the real-time analysis of dynamic processes with single-cell resolution. IntraVital microscopy offers the possibility to follow tumor growth in a non-invasive, non-destructive manner. The application of IVM can be limited to animal models that bear visually accessible tumors. Therefore, the dorsal skinfold chamber model described above can be compatible with IVM. Using IVM can permit a number of parameters to be measured in living animals and as a function of time, including tumor growth, angiogenesis, infiltration by immune cells, tumor cell migration, mitosis (cell-division) and apoptosis (programmed cell death), all in the context of the host and in real time.
Unless otherwise indicated, Compound I was administered by oral gavage in a sesame oil (Carrier A) formulation. Compound I was dissolved in DMSO then in oil at a concentration of 0.25 mg/ml (weight/volume) with a final DMSO concentration of 0.5% (vol/vol), and administered to mice at 1 mg/kg. In some experiments, Compound I dissolved in a mixture of poly-ethylene glycol/DMSO 30% (w/v) was administered via intra-peritoneal injection.
The efficacy of the formulation of Compound I in Carrier A for oral administration was compared to the previous formulation of Compound I in poly-ethylene glycol (PEG) for intra-peritoneal injection (i.p.). These experiments were performed using Intra Vital Microscopy (IVM) in a pseudo-orthotopic prostate chamber model in which minced prostate tissue is grafted in chambers surgically placed in the dorsal skinfold of mice, and allowed to vascularize. Small tumor cells spheroids were then placed on the prostate tissue, creating a biologically relevant prostatic environment. The tumor cells that express fluorescent H2B-GFP and can be detected in situ and in real-time through the microscopy window of the dorsal chamber.
Epithelial cell lines derived from the prostate tumor of a PTEN-null mouse were used. Mouse prostate cancer cells PTEN-P2 are heterozygous for PTEN deletion and do express protein PTEN.

Compound	Combination efficacy	other results
CC(O)(CS(=O)(=O)c1ccc(F)cc1)C(=O)Nc1ccc(C#N)c(C(F)(F)F)c1 (stereo not drawn) [bicalutamide, N-[4-cyano-3-(trifluoromethyl)phenyl]-3-[(4-fluorophenyl)sulfonyl]-2-hydroxy-2-methylpropanamide, reference compound]	No	Effect on tumor size, drug alone (bicalutamide alone, inhibited further tumor growth): did not result in a reduction of initial tumor size
C[C@]12C=CC(=O)N[C@@H]1CC[C@@H]1[C@@H]2CC[C@]2(C)[C@@H](C(=O)Nc3cc(C(F)(F)F)ccc3C(F)(F)F)CC[C@@H]12 [dutasteride, (5α,17β)-N-{2,5-bis(trifluoromethyl)phenyl}-3-oxo-4-azaandrost-1-ene-17-carboxamide, reference compound]	Yes	Tumor size relative to initial size (dutasteride alone): 120%
CNC(=O)c1ccc(N2C(=S)N(c3ccc(C#N)c(C(F)(F)F)c3)C(=O)C2(C)C)cc1F [enzalutamide, (4-(3-(4-cyano-3-(trifluoromethyl)phenyl)-5,5-dimethyl-4-oxo-2-thioxoimidazolidin-1-yl)-2-fluoro-N-methylbenzamide), reference compound]	No	Effect on tumor size, drug alone (enzalutamide alone): did not result in a reduction in tumor size
CCNC(=O)[C@@H]1CCCN1C(=O)[C@H](CCCNC(=N)N)NC(=O)[C@H](CC(C)C)NC(=O)[C@@H](CC(C)C)NC(=O)[C@H](Cc1ccc(O)cc1)NC(=O)[C@H](CO)NC(=O)[C@H](Cc1c[nH]c2ccccc12)NC(=O)[C@H](Cc1c[nH]cn1)NC(=O)[C@@H]1CCC(=O)N1 [leuprolide, 5-oxo-L-prolyl-L-histidyl-L-tryptophyl-L-seryl-L-tyrosyl-D-leucyl-L-leucyl-L-arginyl-N-ethyl-Lprolinamide acetate, reference compound]	Yes	Effect on tumor growth, drug alone (leuprolide alone): arrested tumor growth after 15 days of treatment but did not decrease tumor sizes; Tumor size reached, relative to initial size (leuprolide alone (Lupron depot, 0.187 mg/mouse i.m. once)): 180%
C[C@]12CC[C@H](O)CC1=CC[C@@H]1[C@@H]2CC[C@]2(C)C(c3cccnc3)=CC[C@@H]12 [Abiratcrone, (3β)-17-(pyridin-3-yl)androsta-5,16-dien-3-ol, reference compound]	Yes	
CNC(=O)c1ccc2cc(C3(O)CCn4cncc43)ccc2c1 (stereo not drawn) [orteronel, 6-(7-Hydroxy-6,7-dihydro-5H-pyrrolo[1,2-c]imidazol-7-yl)-N-methyl-naphthalene-2-carboxamide, reference compound]	Yes	Effect on tumor size, drug alone (orteronel alone): did not result in a reduction in tumor size
